In US20080306268A1, “Crystalline clopidogrel hydrobromide and processes for preparation thereof” (Teva Pharmaceuticals USA, Inc. for Barbados, priority 2004, published 2008):
Structures can show the parent of a compound that is named as a salt. Blank lines part the entries; values can stand above or below the molecule they belong to.

What was measured:
[1] = pure crystalline hydrate, purity at least about 99% by HPLC
platelet aggregation = settings: 75 mg base equivalent versus 325 mg aspirin; cited from earlier work
[2] = compared with aspirin; cited from earlier work
[3] = opened beaker, room temperature, 4 days
Method: Form I may also be prepared by exposing a hygroscopic crystalline clopidogrel hydrobromide to air, preferably for at least about 24 hours. In a preferred embodiment, the clopidogrel hydrobromide exposed is Form II, discussed below.

hygroscopicity [1]: only minor hygroscopicity
Structure (SMILES): COC(=O)[C@H](c1ccccc1Cl)N1CCc2sccc2C1 [clopidogrel hydrobromide hydrate]

Structure (SMILES): COC(=O)[C@H](c1ccccc1Cl)N1CCc2sccc2C1 [clopidogrel, methyl (+)-(S)-∝-(o-chlorophenyl)-6,7-dihydrothieno[3,2-c]pyridine-5(4H)-acetate]
effectiveness in blocking platelet aggregation versus aspirin (platelet aggregation): more effective in blocking platelet aggregation than aspirin
gastrointestinal bleeding versus aspirin [2]: much less gastrointestinal bleeding than aspirin

crystalline form after exposure to air [3]: giving clopidogrel hydrobromide form I
Structure (SMILES): COC(=O)[C@H](c1ccccc1Cl)N1CCc2sccc2C1 [Form II, clopidogrel hydrobromide]
